Data on eight molecules can be found in PMC4167698, “Fatty Acid Esters of Phloridzin Induce Apoptosis of Human Liver Cancer Cells through Altered Gene Expression” (PLoS ONE, 2014).

The subject of assay [1] is HepG2 cells. The assay can be described thus: MTS cell proliferation assay, HepG2. As to conditions: MTS. The class given is cell-based, human. The protocol: (§1) Cell viability was determined by using the MTS assay. In brief, HepG2 cells (5×10^3 cells/100 µL/well), MDA-MB-231 (5×10^3 cells/100 µL/well), THP-1 (25×10^3/100 µL/well), normal human and rat hepatocytes (1×10^4 cells/100 µL/well) were plated in triplicate, in a 96 well sterile flat bottom tissue culture plates. […] Thereby, cells were exposed to various concentrations (0.1, 1, 10, 25, 50, 75, 100 µM) of each treatment. Controls consist of cells with media containing DMSO (<0.5%), test blank wells contained the test compound in media with no cells and blank wells contained media with no cells. After additional 3, 6, 12, 18 or 24 h, 20 µL of the MTS reagent in combination with the electron coupling agent, phenazine methosulfate were added to the wells and cells were incubated in a humidified incubator for 3 h. Absorbance at 490 nm (OD490) was measured by using a Flurostar Optima microplate reader (BMG Labtech, Cary, NC, USA) to obtain the number of viable cells relative to the control population. Percentage of viability of the test compound treated cells are expressed as percentage compared to control (<0.5% DMSO). […] The selective index (SI) of the fatty acid esters of phloridzin is defined as the ratio of cytotoxicity (EC50 values) on normal HP-F cells to solid cancer HepG2, MDA-MB-231 cells (SI = EC50 on HP-F cells/EC50 on solid cancer cells). Samples with SI values greater than three were considered to have high selectivity towards cancer cells.
(Tetrazolium assays rely on reduction of a dye to a coloured formazan, in cell work by metabolically active cells.)

Assay [2] deals with MDA-MB-231 cells. The assay can be described thus: MTS cell proliferation assay, MDA-MB-231. The class given is cell-based, human. As to conditions: MTS. The protocol: as §1
The subject of assay [3] is THP-1 cells. The assay can be described thus: MTS cell proliferation assay, THP-1. As to conditions: MTS. The class given is cell-based, human. The protocol: as §1
Assay [4] has as its system normal human hepatocytes (HP-F). Nature of the assay: MTS cell viability assay, normal human hepatocytes. The class given is cell-based. As to conditions: 24 h. The protocol:
as §1

In the case of `CCCCCCCC/C=C\CCCCCCCC(=O)O` [Oleic acid, oleic acid], the half-maximal effective concentration (EC50) in assay [1] (Homo sapiens, HepG2, 3 h) is greater than 100 µM; in assay [1] (Homo sapiens, HepG2, 6 h), greater than 100 µM; in assay [1] (Homo sapiens, HepG2, 12 h), greater than 100 µM; in assay [1] (Homo sapiens, HepG2, 18 h) it was greater than 100 µM; in assay [1] (Homo sapiens, HepG2, 24 h), greater than 100 µM; in assay [2] (Homo sapiens, MDA-MB-231, 3 h) it was greater than 100 µM. Besides, the EC50 was greater than 100 µM in assay [2] (Homo sapiens, MDA-MB-231, 6 h); greater than 100 µM in assay [2] (Homo sapiens, MDA-MB-231, 12 h); greater than 100 µM in assay [2] (Homo sapiens, MDA-MB-231, 18 h); greater than 100 µM in assay [2] (Homo sapiens, MDA-MB-231, 24 h); greater than 100 µM in assay [3] (Homo sapiens, THP-1, 3 h); greater than 100 µM in assay [3] (Homo sapiens, THP-1, 6 h). In addition, the EC50 in assay [3] (Homo sapiens, THP-1, 12 h) is greater than 100 µM; in assay [3] (Homo sapiens, THP-1, 18 h), greater than 100 µM; in assay [3] (Homo sapiens, THP-1, 24 h), greater than 100 µM; in assay [4] (Hepatocyte) it was greater than 100 µM.

For `CCCCCCCCCCCCCCCCCC(=O)O` [Stearic acid, stearic acid], the EC50 in assay [1] (Homo sapiens, HepG2, 3 h) is greater than 100 µM; in assay [1] (Homo sapiens, HepG2, 6 h), greater than 100 µM; in assay [1] (Homo sapiens, HepG2, 12 h) it was greater than 100 µM; in assay [1] (Homo sapiens, HepG2, 18 h), greater than 100 µM; in assay [1] (Homo sapiens, HepG2, 24 h), greater than 100 µM; in assay [2] (Homo sapiens, MDA-MB-231, 3 h), greater than 100 µM. Further, the EC50 was greater than 100 µM in assay [2] (Homo sapiens, MDA-MB-231, 6 h); greater than 100 µM in assay [2] (Homo sapiens, MDA-MB-231, 12 h); greater than 100 µM in assay [2] (Homo sapiens, MDA-MB-231, 18 h); greater than 100 µM in assay [2] (Homo sapiens, MDA-MB-231, 24 h); greater than 100 µM in assay [3] (Homo sapiens, THP-1, 3 h); greater than 100 µM in assay [3] (Homo sapiens, THP-1, 6 h). Moreover, the EC50 in assay [3] (Homo sapiens, THP-1, 12 h) is greater than 100 µM; in assay [3] (Homo sapiens, THP-1, 18 h) it was greater than 100 µM; in assay [3] (Homo sapiens, THP-1, 24 h), greater than 100 µM; in assay [4] (Hepatocyte) it was greater than 100 µM.

For `COc1cccc2c1C(=O)c1c(O)c3c(c(O)c1C2=O)C[C@@](O)(C(C)=O)C[C@@H]3O[C@H]1C[C@H](N)[C@H](O)[C@H](C)O1` [Daunorubicin, daunorubicin], the concentration for a half-maximal effect (EC50) in assay [3] (Homo sapiens, THP-1, 3 h) was 48.1 ± 2.8 µM; in assay [3] (Homo sapiens, THP-1, 6 h), 35.2 ± 2.9 µM; in assay [3] (Homo sapiens, THP-1, 12 h), 12.6 ± 0.8 µM; in assay [3] (Homo sapiens, THP-1, 18 h) it was 1.4 ± 0.2 µM; in assay [3] (Homo sapiens, THP-1, 24 h) it was 0.02 ± 0.01 µM.

Turning to `COc1cccc2c1C(=O)c1c(O)c3c(c(O)c1C2=O)C[C@@](O)(C(=O)CO)C[C@@H]3O[C@H]1C[C@H](N)[C@H](O)[C@H](C)O1` [Doxorubicin, doxorubicin], the concentration for a half-maximal effect (EC50) is greater than 100 µM in assay [2] (Homo sapiens, MDA-MB-231, 3 h); greater than 100 µM in assay [2] (Homo sapiens, MDA-MB-231, 6 h); 9.6 ± 0.2 µM in assay [2] (Homo sapiens, MDA-MB-231, 12 h); 5.9 ± 0.3 µM in assay [2] (Homo sapiens, MDA-MB-231, 18 h); 4.1 ± 0.1 µM in assay [2] (Homo sapiens, MDA-MB-231, 24 h).

Turning to `CC/C=C\C/C=C\C/C=C\C/C=C\C/C=C\CCCC(=O)O` [EPA, eicosapentaenoic acid], the EC50 in assay [1] (Homo sapiens, HepG2, 3 h) is greater than 100 µM; in assay [1] (Homo sapiens, HepG2, 6 h) it was greater than 100 µM; in assay [1] (Homo sapiens, HepG2, 12 h), greater than 100 µM; in assay [1] (Homo sapiens, HepG2, 18 h), greater than 100 µM; in assay [1] (Homo sapiens, HepG2, 24 h), greater than 100 µM; in assay [2] (Homo sapiens, MDA-MB-231, 3 h) it was greater than 100 µM. The EC50 is greater than 100 µM in assay [2] (Homo sapiens, MDA-MB-231, 6 h); greater than 100 µM in assay [2] (Homo sapiens, MDA-MB-231, 12 h); greater than 100 µM in assay [2] (Homo sapiens, MDA-MB-231, 18 h); greater than 100 µM in assay [2] (Homo sapiens, MDA-MB-231, 24 h); greater than 100 µM in assay [3] (Homo sapiens, THP-1, 3 h); greater than 100 µM in assay [3] (Homo sapiens, THP-1, 6 h). Besides, the EC50 in assay [3] (Homo sapiens, THP-1, 12 h) is greater than 100 µM; in assay [3] (Homo sapiens, THP-1, 18 h), greater than 100 µM; in assay [3] (Homo sapiens, THP-1, 24 h), greater than 100 µM; in assay [4] (Hepatocyte) it was greater than 100 µM.

As for `CC/C=C\C/C=C\C/C=C\CCCCCCCC(=O)O` [α-Linolenic acid, α-linolenic acid], the concentration for a half-maximal effect (EC50) was greater than 100 µM in assay [1] (HepG2, 3 h); greater than 100 µM in assay [1] (HepG2, 6 h); greater than 100 µM in assay [1] (HepG2, 12 h); greater than 100 µM in assay [1] (HepG2, 18 h); greater than 100 µM in assay [1] (HepG2, 24 h); greater than 100 µM in assay [2] (MDA-MB-231, 3 h). Besides, the EC50 in assay [2] (MDA-MB-231, 6 h) was greater than 100 µM; in assay [2] (MDA-MB-231, 12 h), greater than 100 µM; in assay [2] (MDA-MB-231, 18 h), greater than 100 µM; in assay [2] (MDA-MB-231, 24 h), greater than 100 µM; in assay [3] (THP-1, 3 h) it was greater than 100 µM; in assay [3] (THP-1, 6 h) it was greater than 100 µM. Also, the concentration for a half-maximal effect (EC50) in assay [3] (THP-1, 12 h) was greater than 100 µM; in assay [3] (THP-1, 18 h), greater than 100 µM; in assay [3] (THP-1, 24 h), greater than 100 µM; in assay [4], greater than 100 µM.

As for `CCCCC/C=C\C/C=C\CCCCCCCC(=O)O` [Linoleic acid, linoleic acid], the EC50 was greater than 100 µM in assay [1] (Homo sapiens, HepG2, 3 h); greater than 100 µM in assay [1] (Homo sapiens, HepG2, 6 h); greater than 100 µM in assay [1] (Homo sapiens, HepG2, 12 h); greater than 100 µM in assay [1] (Homo sapiens, HepG2, 18 h); greater than 100 µM in assay [1] (Homo sapiens, HepG2, 24 h); greater than 100 µM in assay [2] (Homo sapiens, MDA-MB-231, 3 h). In addition, the EC50 is greater than 100 µM in assay [2] (Homo sapiens, MDA-MB-231, 6 h); greater than 100 µM in assay [2] (Homo sapiens, MDA-MB-231, 12 h); greater than 100 µM in assay [2] (Homo sapiens, MDA-MB-231, 18 h); greater than 100 µM in assay [2] (Homo sapiens, MDA-MB-231, 24 h); greater than 100 µM in assay [3] (Homo sapiens, THP-1, 3 h); greater than 100 µM in assay [3] (Homo sapiens, THP-1, 6 h). Moreover, the EC50 in assay [3] (Homo sapiens, THP-1, 12 h) is greater than 100 µM; in assay [3] (Homo sapiens, THP-1, 18 h) it was greater than 100 µM; in assay [3] (Homo sapiens, THP-1, 24 h), greater than 100 µM; in assay [4] (Hepatocyte), greater than 100 µM.

Consider `CC/C=C\C/C=C\C/C=C\C/C=C\C/C=C\C/C=C\CCC(=O)O` [DHA, decosahexaenoic acid], for which the EC50 in assay [1] (HepG2, 3 h) was greater than 100 µM; in assay [1] (HepG2, 6 h), greater than 100 µM; in assay [1] (HepG2, 12 h), greater than 100 µM; in assay [1] (HepG2, 18 h), greater than 100 µM; in assay [1] (HepG2, 24 h), greater than 100 µM; in assay [2] (MDA-MB-231, 3 h), greater than 100 µM. Besides, the 50% effective concentration (EC50) was greater than 100 µM in assay [2] (MDA-MB-231, 6 h); greater than 100 µM in assay [2] (MDA-MB-231, 12 h); greater than 100 µM in assay [2] (MDA-MB-231, 18 h); greater than 100 µM in assay [2] (MDA-MB-231, 24 h); greater than 100 µM in assay [3] (THP-1, 3 h); greater than 100 µM in assay [3] (THP-1, 6 h). Besides, the EC50 in assay [3] (THP-1, 12 h) is greater than 100 µM; in assay [3] (THP-1, 18 h) it was greater than 100 µM; in assay [3] (THP-1, 24 h), greater than 100 µM; in assay [4] it was greater than 100 µM.

As usually defined, the EC50 is the concentration needed to bring the measured effect to its halfway point.
